Assays:
HEK cells = test: pH assay of uptake by transporters naturally expressed in HEK cells, with and without phloretin; type: cell-based, human; details: phloretin 0.5 mM, FIG. 1
Method: Although HEK's are a kidney derived cell line, they express some of the same transporters as the colon and can be used as a preliminary screen to identify substrates of colon-expressed transporters.
Cells were seeded at 100,000/well in 96 black, clear bottom plate overnight and washed twice in 100 μL buffer I at room temperature.
Cells were loaded with […] 2,7-bis-(2-carboxyethyl)-5-carboxyfluoroscein acetoxymethyl ester (BCECF AM) (resuspended in 50:50 dimethylsulfoxide:Pluronic™ surfactant mixture) in buffer 1 for 15 min. at 37° C. at 50 μL/well.
The rest of the protocol was performed at room temperature.
Cells were washed twice in buffer 2 at 50 μL/well. A first reading was taken in FLEX station in the buffer 2 at two sets of fluorescence excitation/emission wavelengths, 440/535 and 490/535, with 50 μL buffer/well. […] A second reading was taken in FLEX station at above settings (T0). […] A third reading was taken in FLEX station at above settings (T1). […]
For each well, values for A, B and C were calculated using the T0 and T1 data and the following equations:
A=measured fluorescence at excitation/emission wavelengths 440/535−background
B=measured fluorescence at excitation/emission wavelengths 490/535−background
The C values for the T0 and T1 data were used to determine the percent decrease in fluorescence at T1 relative to T0. […]

hSMVT [1] = target: T1, hSMVT (Homo sapiens, UniProt Q9Y289); test: Transport currents in SMVT-expressing Xenopus oocytes, normalized to biotin; type: cell-based; details: response relative to biotin, transporter-expressing oocytes, test compound 0.5 mM
T1 sequence (Q9Y289 1-635): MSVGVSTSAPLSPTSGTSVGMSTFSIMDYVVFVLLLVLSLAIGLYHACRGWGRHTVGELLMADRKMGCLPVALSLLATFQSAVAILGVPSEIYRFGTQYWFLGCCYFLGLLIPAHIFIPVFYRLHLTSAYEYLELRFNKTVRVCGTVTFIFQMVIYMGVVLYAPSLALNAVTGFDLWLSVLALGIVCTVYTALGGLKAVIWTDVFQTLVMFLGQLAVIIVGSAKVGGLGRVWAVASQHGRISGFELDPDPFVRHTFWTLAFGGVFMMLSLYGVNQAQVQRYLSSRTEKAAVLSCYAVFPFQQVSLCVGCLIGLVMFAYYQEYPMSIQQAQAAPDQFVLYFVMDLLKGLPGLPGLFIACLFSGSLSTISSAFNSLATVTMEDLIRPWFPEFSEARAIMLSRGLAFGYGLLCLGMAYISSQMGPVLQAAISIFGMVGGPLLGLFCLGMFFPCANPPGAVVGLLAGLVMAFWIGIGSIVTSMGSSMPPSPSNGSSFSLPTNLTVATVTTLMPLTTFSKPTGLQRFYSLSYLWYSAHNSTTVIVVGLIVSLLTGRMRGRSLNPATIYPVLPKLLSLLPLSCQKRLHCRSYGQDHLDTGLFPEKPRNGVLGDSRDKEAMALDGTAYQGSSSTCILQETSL
Text: (§1) The complete open reading frame of human ATBO+(SLC6A14) and SMVT (SLC5A6) were amplified from human cDNA prepared from liver or intestine mRNA. Gene-specific oligonucleotide primers were designed against Genbank sequences (AF151978 and NM-021095). Amplified PCR products were cloned into a modified version of the mammalian expression vector pcDNA3 (termed pMO) that was engineered to contain the 5′ and 3′ untranslated regions from the Xenopus beta-globin gene. All clones were completely sequenced and tested for function by transient transfection in HEK293 cells.
cRNA for oocyte expression was prepared by linearization of plasmid cDNA and in vitro transcription using T7 polymerase (Epicentre Ampliscribe kit). Xenopus oocytes were prepared and maintained as previously described (Collins et al., PNAS […]:5456-5460 (1997)) and injected with 10-30 ng RNA. Transport currents were measured 2-6 days later using two-electrode voltage-clamp (Axon Instruments). All experiments were performed using a modified oocyte Ringers solution (90 mM NaCl, 2 mM KCl, 1.8 mM CaCl2, 1 mM MgCl2, and 10 mM Na HEPES, pH 7.4; in Na^+-free solutions 90 mM choline chloride was substituted for NaCl). The membrane potential of oocytes was held at −60 mV and current traces acquired using PowerLab software (AD Instruments). Full 7-concentration dose-responses were performed for each compound. […] Half-maximal concentrations were calculated using non-linear regression curve fitting software (Prism) with the Hill co-efficient fixed to 1. To ensure that currents were specific for the over-expressed transporter, all compounds were tested against uninjected oocytes. Since both ATBO+ and SMVT require Na^+ for transport, we confirmed transport specificity by application of the compounds in a Na^+-free solution.
In vitro transport data for selected compounds on hSMVT-expressing cells

[2] = Uptake of compounds through the rat colon (intracolonic dosing, gabapentin in blood by LC/MS/MS); type: in vivo; details: dose equivalent to 25 mg gabapentin per kg, FIG. 3A
Method: Rats were obtained commercially and were pre-cannulated in the both the ascending colon and the jugular vein. Animals were conscious at the time of the experiment. All animals were fasted overnight and until 4 hours post-dosing. Prodrugs were administered as a solution (in water or polyethylene glycol 400) directly into the colon via the cannula at a dose equivalent to 25 mg of gabapentin per kg. Blood samples (0.5 mL) were obtained from the jugular cannula at intervals over 8 hours and were quenched immediately by addition of acetonitrile/methanol to prevent further conversion of the prodrug. Blood samples were analyzed as described in the attached sample analysis summary.
1. In blank 1.5 mL eppendorf tubes, add 300 μL of a 50/50 mixture of acetonitrile/methanol and 20 μL of the p-chlorophenylalanine as internal standard.
2. Rat blood was collected at different time points and immediately 100 μL of blood was added into the eppendorf tube and vortex to mix.
3. 10 μL of the gabapentin standard solution (0.04, 0.2, 1, 5, 25, 100 μg/mL) was added to 90 μL of blank rat blood to make up a final calibration standard (0.004, 0.02, 0.1, 0.5, 2.5, 10 μg/mL). […]
API 2000 LC/MS/MS mass spectrometer equipped with Shidmadzu 10ADVp binary pumps and an autosampler (CTC Analytics AG, High Throughput Screening-PAL) were used in the analysis. […] The peaks were integrated by the Analyst 1.1 quantitation software.

hSMVT [3] = target: T1, hSMVT; test: Radiolabeled competition assay in SMVT-expressing CHO cells; type: cell-based
Text: as §1, with “Gene-specific oligonucleotide primers were designed against Genbank sequences (AF151978 and NM-021095).” left out
For cell uptake studies, stable CHOK1 clones were seeded into polylysine coated 96-well microtitre plates and grown for 2-3 days. Cells were incubated with experimental solutions (combinations of radiolabeled and unlabeled compounds) for 30 minutes at room temperature, washed four times, and lysed in scintillation solution. Accumulation of radiolabeled molecules was measured in a microtitre scintillation plate reader (Perkin Elmer). Inhibition constants (IC50s) were calculated using curve-fitting software (Prism).

SMILES	Uptake by HEK cells in presence and absence of transporter inhibitor phloretin (HEK cells)	% Max. (Biotin) (hSMVT [1]) [%]	Colonic uptake determined from plasma concentration of gabapentin [2]	IC50 (hSMVT [3]) [µM]
CC(C)(C)C(=O)OCOC(=O)NCC1(CC(=O)O)CCCCC1 [Compound I, gabapentin pivaloxymethyl carbamate]	phloretin substantially inhibits uptake of Compound I	21	taken up best	–
NCC1(CC(=O)O)CCCCC1 [Gabapentin, reference compound]	–	0	not taken up significantly	–
CC(=O)OC(C)OC(=O)NCC1(CC(=O)O)CCCCC1 (stereo not drawn) [Compound IV, gabapentin acetoxyethyl carbamate]	–	–	–	80

Source: US20030158254A1, “Engineering absorption of therapeutic compounds via colonic transporters” (XenoPort, Inc., priority 2002, published 2003)
